# From ChEMBL document CHEMBL1150505 (Bioorg Med Chem Lett, 1994)
# Experiments:
# Homo sapiens = species: Homo sapiens; assay: Compound was tested for Leukotriene B4-mediated Up-regulation of human neutrophil CD11b/CD18; type: functional
# [1] = LTB4 receptor antagonist activity was determined by inhibition of specific binding of [3H]LTB4 in guinea pig lung membranes
# [2] = target: Leukotriene B4 receptor 1 (Homo sapiens, UniProt Q15722); assay: LTB4 receptor antagonist activity was determined by inhibition of specific binding of [3H]LTB4 in human neutrophil
# Leukotriene B4 receptor 1, sequence (Q15722 whole entry): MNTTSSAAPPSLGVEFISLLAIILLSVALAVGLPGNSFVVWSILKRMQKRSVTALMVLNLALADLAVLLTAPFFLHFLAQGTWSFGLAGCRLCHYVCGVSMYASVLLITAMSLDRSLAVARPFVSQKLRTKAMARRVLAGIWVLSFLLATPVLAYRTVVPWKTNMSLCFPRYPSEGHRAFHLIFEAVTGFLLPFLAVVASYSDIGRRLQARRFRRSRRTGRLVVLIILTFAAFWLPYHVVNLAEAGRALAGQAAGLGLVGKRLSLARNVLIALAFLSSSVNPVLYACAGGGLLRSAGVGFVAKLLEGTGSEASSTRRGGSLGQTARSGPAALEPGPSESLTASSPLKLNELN
IC50 (Homo sapiens),Ki [1],Ki [2],Compound
2.6 nM,–,–,CCc1cc(-c2ccc(F)cc2)c(O)cc1OCCCOc1cccc(Oc2ccc(C(=O)O)cc2)c1CCC(=O)O
–,0.04 nM,–,CCc1cc(-c2ccc(F)cc2)c(O)cc1OCCCOc1ccc2c(=O)c3cc(C(=O)O)ccc3oc2c1CCC(=O)O
4.7 nM,–,–,CCc1cc(-c2ccc(F)cc2)c(O)cc1OCCCOc1ccc(C#CCCC(=O)O)cc1CCC(=O)O
1800 nM,–,39 nM,CCc1cc(-c2ccc(F)cc2)c(O)cc1OCCCOc1cc(Oc2ccc(C(=O)O)cc2)ccc1CCC(=O)O
